Reference: PMC5877439 (British Journal of Cancer, 2018)

Assays:
[1] = Safety, tolerability, DLT and MTD; format: in vivo, human
[2] = Plasma MK-0752 PK analysis; format: in vivo, human
[3] = ref Krop et al, 2012, cited from earlier work
[4] = Tumour MK-0752 concentration in biopsies; format: in vivo, human; details: between the 1500 and 2100 mg doses; data limited
[5] = tested on: Notch signalling; test: Notch signature score in plucked hair follicles; format: in vivo, human; details: number of samples limited

With `Nc1ccn([C@@H]2O[C@H](CO)[C@@H](O)C2(F)F)c(=O)n1` [gemcitabine, 2′,2′,-difluoro-2′,-deoxycytidine, reference compound] the “MTD / RP2D of gemcitabine in combination with MK-0752” value ([1]; i.v. days 1, 8 and 15 of 28 day cycle, with MK-0752 1800 mg) was 1000 mg m^-2.
For `O=C(O)CC[C@H]1CC[C@@](c2cc(F)ccc2F)(S(=O)(=O)c2ccc(Cl)cc2)CC1` [MK-0752], the “MK-0752 plasma exposure across the dose groups” value ([2]; 1200-2400 mg once weekly) is listed as “no increment in exposure beyond the RP2D single-agent dose (1800 mg weekly)”, the “Plasma MK-0752 exposure (AUC0-t) and Cmax, effect of gemcitabine” value ([2]; day 1 (MK-0752+gemcitabine) vs day -7 (MK-0752 alone), 40 patients) is listed as “did not appear to be affected by the addition of gemcitabine” and the “Drug exposure with dose, single agent” value ([3]; phase I studies of MK-0752 alone) is listed as “no significant increase in drug exposure between 1800 mg and 3200 mg”. The “Recommended dose for phase II evaluation (RP2D), single agent” value ([3]; single-agent studies) was 1800 mg, the “Maximum tolerated dose (MTD), single agent” value ([3]; weekly schedule, MK-0752 alone) was 3200 mg and the “MTD / RP2D of MK-0752 in combination with gemcitabine” value ([1]; p.o. once weekly, with gemcitabine 1000 mg m^-2) was 1800 mg. The “Tumour MK-0752 concentration across doses” value [4] was “no increment” and the “Relationship between MK-0752 dose and fold-change in Notch score” value [5] was “no relationship”.
